Test results from patent US11603387B2, “SOCS mimetics for the treatment of diseases” (UNIVERSITY OF FLORIDA RESEARCH FOUNDATION, INC., priority 2014, dated 2023).

Key:
[1] = system: SOCS1+/+ or SOCS1+/− CD4+CD25− T cells; test: CD4+ T cell proliferation (CFSE labeling, cell counts, 3H thymidine incorporation); format: cell-based, mouse; conditions: αCD3 + SOCS1-KIR peptide (20 μM), 72 h
Method: (§1) FIGS. 5A-5D. […] (FIGS. 5A and 5B) SOCS1^+/+ or SOCS1^+/− CD4^+CD25^− T cells were stimulated with αCD3 antibodies alone or with αCD3+SOCS1-KIR peptide (20 μM) for 72 h. (FIG. 5A) CD25 expressing cells were assessed by flow cytometry. Results are representative of 4 independent experiments. (FIG. 5B) Proliferation was assessed by CFSE labeling and flow cytometry, cell counts, and ^3[H] thymidine incorporation. n=4. (FIGS. 5C and 5D) SOCS1^+/+ or SOCS1^+/− CD4^+CD25^− T cells were placed under Th17 inducing conditions in the absence or presence of SOCS1-KIR peptide (20 μM) (FIG. 5C) IFNγ expression, relative to β-actin., was assessed by qPCR (left) and ELISA (right) (n=4). (FIG. 5D) pSTAT1 and STAT1 protein expressions were assessed by western blotting. Results are representative of 4 independent experiments. Statistical comparisons were performed using Mann-Whitney U test. (*P<0.05). iTh17=Th17 inducing conditions, WT=SOCS1^+/+, and HT=SOCS1^+/−.
CD4^+ T cell proliferation was assessed by CFSE staining, ^3H thymidine incorporation, and absolute cell counts. MACS purified CD4^+CD25^− T cells, isolated from LN and spleen suspension, were stimulated in triplicate (96 well round-bottom plate; 1×10^5 cells/well) with 10 μg/ml anti-CD3 (BD Pharmingen; clone: 145.2C11) alone or in addition to 1.5 μg/ml anti-CD28 (BD Pharmingen; clone 37.51) at 37° C. (5% CO2) in RPMI 1640 (Cellgro; 10-040-CV) containing 10% FBS (INVITROGEN™ GIBCO®), 1% antibiotic/antimycotic (Herndon, Va.), and 50 μM β-ME (MP Biomedicals, Solon, Ohio). After 72 h of incubation, cell cultures were either pulsed with 0.5 mCi ^3H thymidine (GE Healthcare; Arlington Heights, Ill.) or counted and harvested for assessment by flow cytometry. In cultures analyzed by flow cytometry, T lymphocytes were labeled with 10 μg/ml CFSE prior to culture as previously described (Cozzo et al. 2003). ^3H thymidine pulsed T lymphocytes were harvested 16-18 hours after initial pulse followed by the ^3H thymidine incorporation assessment using a Beckman LS3801 Liquid Scintillation System. […]

STAT1 = test: pSTAT1/STAT1 western blotting under Th17 inducing conditions; format: cell-based, mouse; conditions: SOCS1+/− CD4+ T cells, SOCS1-KIR peptide (20 μM)
Method: as §1
MACS purified CD4^+CD25^− T cells were stimulated with anti-CD3 Ab (10 μg/ml), anti-CD3 (10 μg/ml) and anti-CD28 (1.5 μg/ml) Abs, or Th17 inducing conditions in the presence or absence of SOCS1-KIR peptide as previously described. […] Equal quantities of protein were loaded and separated in 4%-12% SDS-PAGE gel (Biorad). […]

Sequence: DTHFRTFRSHSDYRRI (SOCS1-KIR peptide) [SOCS1 mimetic peptide corresponding to the KIR region of SOCS1]
- Activation and proliferation of αCD3 treated SOCS1+/− CD4+ T lymphocytes relative to WT ([1]; SOCS1+/− cells): to levels comparable to WT receiving αCD3 stimulation
- Proliferation by CFSE labeling ([1]; WT and SOCS1+/− T lymphocytes): reduced proliferation
- Absolute cell counts and 3H thymidine incorporation [1]: inhibition of T lymphocyte proliferation
- STAT1 activation (phosphorylation) (STAT1): drastically reduced the enhanced STAT1 activation
